Paper PMC10002956, “Tumour suppressor PTEN activity is differentially inducible by myo‐inositol phosphates” (Journal of Cellular and Molecular Medicine, 2023)

How the values were obtained:
[1] = target: T1, PTEN (phosphatase and tensin homologue deleted on Chromosome 10) (Homo sapiens, UniProt P60484); assay: malachite green phosphate release from PIP3; format: biochemical; details: PIP3 200 μM, PTEN 50 μM, IHP 2.5-40 mM; Tris-HCl pH 7.5, 10 mM DTT, 37 °C
T1 construct: commercial recombinant PTEN; immobilised on CM5 chip for SPR

[2] = target: T1, PTEN (phosphatase and tensin homologue deleted on Chromosome 10); assay: SPR, PTEN immobilised on CM5 chip, Biacore T200, […] Langmuir with mass transport; format: binding; details: 25 °C, HBS; PIP3 25-400 μM; acyl chains of PIP3 not told

T1 sequence (P60484 2-403): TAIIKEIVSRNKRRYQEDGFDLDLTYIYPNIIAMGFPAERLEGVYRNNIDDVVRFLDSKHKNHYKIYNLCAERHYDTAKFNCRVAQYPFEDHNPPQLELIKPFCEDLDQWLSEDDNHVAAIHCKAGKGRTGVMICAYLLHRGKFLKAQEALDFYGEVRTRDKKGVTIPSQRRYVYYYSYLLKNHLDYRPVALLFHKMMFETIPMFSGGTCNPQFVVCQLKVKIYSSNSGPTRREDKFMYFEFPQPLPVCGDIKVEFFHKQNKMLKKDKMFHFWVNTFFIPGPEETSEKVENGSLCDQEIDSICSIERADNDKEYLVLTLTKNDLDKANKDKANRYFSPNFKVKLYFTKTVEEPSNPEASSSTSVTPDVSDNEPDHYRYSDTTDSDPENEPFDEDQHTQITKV

K D [2]	Compound	malachite green phosphate release from PIP3 [1]
	O=P(O)(O)O[C@H]1[C@H](OP(=O)(O)O)[C@@H](OP(=O)(O)O)[C@H](OP(=O)(O)O)[C@@H](OP(=O)(O)O)[C@H]1OP(=O)(O)O [IHP]	IHP inhibits hydrolysis in a concentration‐dependent manner
~ 2.5 micromoles	PIP3	
